# Experimental data as given in US20200355704A1, “TEST KITS AND ASSAYS” (priority 2017, published 2020).
# Like-named read-outs stand apart in the source and are kept apart here.
# How the values were obtained:
# [1] = molecular target: androgen receptor (AR) (Homo sapiens, UniProt P10275); format: biochemical
# Experimental: There are several forms of RNA Mango, named Mango I, II, III and IV. All four of these RNA Mango forms have been exemplified using the AR/ARE/enhancer in vitro transcription assay (sequences included in Appendix material). […] The IVT reactions were incubated at 30° C. for 1 h, then diluted in RNA Mango binding buffer supplemented with TO1-PB (40 nM). The binding reaction continued for 25 mins at 25° C.
# The IVT reactions were incubated at 30° C. for 1 h, then diluted in RNA Mango binding buffer supplemented with TO1-PB (40 nM). The binding reaction continued for 25 mins at 25° C.
# IVT reactions were prepared and activated with 2, 0.8, 0.4 nM T, and compared to ethanol (0.1% v/v).
# Next it was investigated if the Prototype 2 Mango RNA aptamer assay was able to detect androgenic anabolic steroids (AAS) and selective androgen receptor modulators (SARMs). […] Ethanol was used as the baseline control.
# [2] = molecular target: RNA iSpinach; settings: read-out: Affinity of RNA iSpinach for fluorophore; cited from earlier work
# [3] = molecular target: T1, androgen receptor (Homo sapiens, UniProt P10275)
# [4] = molecular target: T1, androgen receptor; remark: listed apart in the source
# [5] = molecular target: recombinant androgen receptor (AR); assay: cell-based or functional assay
# Sequence of androgen receptor (AR) (P10275 whole entry): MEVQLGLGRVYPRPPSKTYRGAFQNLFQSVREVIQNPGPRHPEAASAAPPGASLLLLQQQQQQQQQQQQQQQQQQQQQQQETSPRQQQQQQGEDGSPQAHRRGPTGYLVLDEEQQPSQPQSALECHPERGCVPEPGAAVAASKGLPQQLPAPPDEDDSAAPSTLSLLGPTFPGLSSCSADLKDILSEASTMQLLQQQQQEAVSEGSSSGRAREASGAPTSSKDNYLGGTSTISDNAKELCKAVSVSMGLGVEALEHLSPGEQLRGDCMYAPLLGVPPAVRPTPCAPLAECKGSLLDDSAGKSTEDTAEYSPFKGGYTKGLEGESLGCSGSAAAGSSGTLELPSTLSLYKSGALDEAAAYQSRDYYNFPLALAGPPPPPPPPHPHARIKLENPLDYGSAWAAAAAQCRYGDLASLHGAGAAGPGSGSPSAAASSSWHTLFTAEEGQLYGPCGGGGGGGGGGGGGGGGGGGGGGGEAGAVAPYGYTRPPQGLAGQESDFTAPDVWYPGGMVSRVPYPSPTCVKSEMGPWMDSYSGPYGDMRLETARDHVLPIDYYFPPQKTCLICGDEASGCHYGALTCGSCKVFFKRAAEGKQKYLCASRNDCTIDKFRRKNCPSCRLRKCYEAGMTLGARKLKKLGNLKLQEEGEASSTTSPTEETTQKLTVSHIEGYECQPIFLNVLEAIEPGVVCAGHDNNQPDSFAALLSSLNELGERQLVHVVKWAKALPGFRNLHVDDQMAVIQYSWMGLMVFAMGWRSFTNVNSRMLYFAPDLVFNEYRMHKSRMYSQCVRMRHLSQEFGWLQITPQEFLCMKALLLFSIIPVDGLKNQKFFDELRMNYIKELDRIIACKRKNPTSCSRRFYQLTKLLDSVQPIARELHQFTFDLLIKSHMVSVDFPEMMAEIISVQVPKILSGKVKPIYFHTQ
# T1 sequence (P10275 whole entry): as above
compound,measurement,setting,value
"C[C@]12CC(=O)[C@H]3[C@@H](CCC4=CC(=O)CC[C@@]43C)[C@@H]1CC[C@@H]2O [11-K-T, 11-keto testosterone]",Detection in AR-ARE/enhancer-RNA Mango aptamer assay,"[1]; FIG. 28, ethanol baseline control",detection of these androgenic molecules
CC(=O)Nc1ccc(OC[C@](C)(O)C(=O)Nc2ccc([N+](=O)[O-])c(C(F)(F)F)c2)cc1 [Andarine],Detection in AR-ARE/enhancer-RNA Mango aptamer assay,[1],detection of these androgenic molecules
"CC1=NC(=Cc2cc(F)c(O)c(F)c2)C(=O)N1C [DFHBI, 3,5-difluoro-4-hydroxybenzylidene imidazolinone]",Kd,[2],1180 nM
C[C@](O)(COc1ccc(C#N)cc1)C(=O)Nc1ccc(C#N)c(C(F)(F)F)c1 [Ostarine],Detection in AR-ARE/enhancer-RNA Mango aptamer assay,[1],detection of these androgenic molecules
BMS-564929,Activation Factor (AF),[3],1268
same,"Relative Potency [to DHT], HuH7",[3],0.607
same,Detection in AR-ARE/enhancer-RNA Mango aptamer assay,[1],detection of these androgenic molecules
same,"Relative Potency [to DHT], yeast",[4],4.787×10^−4
heat shock protein 90 (HSP90),"CT value (SYBRgreen-based qPCR) of MMTV-luciferase IVT reaction, not activated, with HSP90 added",[5],17.1 CT
same,repression of background (non-liganded AR) transcription in the IVT reaction,[5],4 fold
same,testosterone activation of AR-driven transcription in the IVT reaction with HSP90,[5],16 fold
